The record followed here is PubChem BioAssay (NCI).

Where “and” joins values, the source holds several entries; their conditions need not be identical. Equal values may be shown once.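 Values below derive from 48-hour exposures of cells grown in 96-well plates, with endpoints linearly interpolated between the two concentrations bracketing the appropriate inhibition level. GI50 marks 50% less growth. TGI marks complete inhibition of growth.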 A value given as a limit tells only on which side of the number the result lay.

Test systems include NCI-H23 lung; NCI/ADR-RES ovarian; IGROV1 ovarian; MDA-MB-231 breast; SF-539 CNS; NCI-H226 lung; 786-0 renal; RPMI-8226 leukemia; SF-268 CNS; CAKI-1 renal; HT29 colon.
Common to all, as to assay: NCI-60 cell line screen, 48 h

Take `CCCCCCCCCCCCCCCCOC[C@@H](COC(c1ccccc1)(c1ccccc1)c1ccccc1)O[P+](=S)OC` (stereo partly specified): the TGI in the assay with NCI-H23 lung worked out at 23.7 µM; in the assay with NCI/ADR-RES ovarian, 59.8 µM; with IGROV1 ovarian, 36 µM; with MDA-MB-231 breast it was 5.49 µM; in the assay with SF-539 CNS, 9.45 µM; in the assay with NCI-H226 lung it was 42.5 µM. The TGI amounted to 19.1 µM in the assay on 786-0 renal; 14.7 µM in the assay with RPMI-8226 leukemia; 28.6 µM with SF-268 CNS; 23.8 µM in the assay with CAKI-1 renal; 35.2 µM in the assay on HT29 colon.

As for `CCCCON1C[C@H](OC(C)=O)C(OC(C)=O)[C@H](OC(C)=O)C1` (stereo partly specified), the TGI in the assay on NCI-H23 lung, in the assay with NCI/ADR-RES ovarian, in the assay with IGROV1 ovarian, with MDA-MB-231 breast, in the assay on SF-539 CNS and in the assay with NCI-H226 lung was above 100 µM each time. Moreover, the TGI with 786-0 renal, in the assay on RPMI-8226 leukemia, with SF-268 CNS, in the assay on CAKI-1 renal and in the assay on HT29 colon was above 100 µM each time.

With `O=c1[nH]nc(Cc2ccccc2)n1CCO`, the TGI in the assay with NCI-H23 lung, in the assay with NCI/ADR-RES ovarian, with IGROV1 ovarian, with MDA-MB-231 breast, with SF-539 CNS and in the assay with NCI-H226 lung was above 100 µM in each case. Also, the TGI in the assay with 786-0 renal, in the assay on RPMI-8226 leukemia, in the assay with SF-268 CNS, in the assay on CAKI-1 renal and with HT29 colon was above 100 µM throughout.

`S=C(c1c[nH]c2ccccc12)N1CCN(Cc2ccccc2)CC1`: the TGI with NCI-H23 lung was 42.8 µM; with NCI/ADR-RES ovarian, 36 µM; in the assay on IGROV1 ovarian it was 26.2 µM; in the assay with MDA-MB-231 breast, 32.9 µM; in the assay on SF-539 CNS, 32.9 µM; in the assay with NCI-H226 lung, 35.9 µM. Also, the TGI with 786-0 renal worked out at 29 µM; with RPMI-8226 leukemia, 51.9 µM; in the assay with SF-268 CNS it was 35.6 µM; in the assay on CAKI-1 renal, 56.1 µM; in the assay with HT29 colon, 30.1 µM.

Turning to `CCOC(=O)CC(=O)Nc1cccc2[nH]cnc12`, the TGI in the assay on NCI-H23 lung, in the assay with NCI/ADR-RES ovarian, with IGROV1 ovarian, with MDA-MB-231 breast, in the assay with SF-539 CNS and in the assay on NCI-H226 lung was above 100 µM each time. The TGI in the assay with 786-0 renal, in the assay with RPMI-8226 leukemia, with SF-268 CNS, in the assay with CAKI-1 renal and with HT29 colon was above 100 µM in each case.

For the compound `Cc1ccc(NC(=O)CSc2nc(=O)[nH]c3nc[nH]c23)cc1`, the TGI is above 100 µM in the assay on NCI-H23 lung; above 100 µM in the assay on NCI/ADR-RES ovarian; above 100 µM in the assay on IGROV1 ovarian; above 100 µM with MDA-MB-231 breast; 52.8 µM with SF-539 CNS; above 100 µM in the assay with NCI-H226 lung. The TGI with 786-0 renal, with RPMI-8226 leukemia, in the assay with SF-268 CNS, with CAKI-1 renal and in the assay with HT29 colon was above 100 µM each time.

`CC1=C(C(=O)c2ccccc2)C23C(=O)N(c4ccccc4)C(=O)C2=C(O)C=CC3(O)N1` (stereo unspecified): the TGI with NCI-H23 lung was above 100 µM; in the assay with NCI/ADR-RES ovarian, above 100 µM; in the assay on IGROV1 ovarian it was 51.9 µM; in the assay on MDA-MB-231 breast it was above 100 µM; in the assay with SF-539 CNS, above 100 µM; in the assay on NCI-H226 lung, above 100 µM. Also, the TGI in the assay with 786-0 renal is above 100 µM; with RPMI-8226 leukemia, above 100 µM; in the assay on SF-268 CNS, above 100 µM; with CAKI-1 renal it was above 100 µM; in the assay on HT29 colon, 32.3 µM.

Take `NC1=CN2c3ccccc3N(CC(=O)O)C2C=C1` (stereo unspecified): the TGI with NCI-H23 lung, with NCI/ADR-RES ovarian, in the assay with IGROV1 ovarian, in the assay on MDA-MB-231 breast, in the assay on SF-539 CNS and with NCI-H226 lung was above 100 µM each time. Moreover, the TGI with 786-0 renal, with RPMI-8226 leukemia, in the assay on SF-268 CNS, in the assay on CAKI-1 renal and with HT29 colon was above 100 µM each time.

Consider `O=CC12C3CCC1C2C(=O)C3` (stereo unspecified), for which the TGI in the assay with NCI-H23 lung, with NCI/ADR-RES ovarian, with IGROV1 ovarian, with MDA-MB-231 breast, with SF-539 CNS and with NCI-H226 lung was above 100 µM each time. The TGI in the assay on 786-0 renal, in the assay on RPMI-8226 leukemia, with SF-268 CNS, with CAKI-1 renal and with HT29 colon was above 100 µM in each case.

Turning to `CC1OC(OC2C(OC(=O)[C@]34CCC(C)(C)C[C@H]3C3=CC[C@@H]5[C@@]6(C)CC[C@H](OC7OC(C(=O)O)C(O)C(OC8OCC(O)C(O)C8O)C7O)C(C)(C)[C@@H]6CC[C@@]5(C)[C@]3(C)CC4)OCC(O)C2O)C(O)C(OC2OCC(O)C(O)C2O)C1OC1OCC(O)C(OC2OCC(O)C(O)C2O)C1O` (stereo partly specified), the TGI was 21.7 µM and 33 µM with NCI-H23 lung; 24.4 µM and 67.7 µM in the assay with NCI/ADR-RES ovarian; 32.6 µM and > 100 µM with IGROV1 ovarian; 14.2 µM and 12.9 µM in the assay on MDA-MB-231 breast; 68.7 µM in the assay on SF-539 CNS; 24.6 µM and 39.7 µM with NCI-H226 lung. Further, the TGI in the assay with 786-0 renal is 25.7 µM and 43 µM; in the assay on RPMI-8226 leukemia, 19.8 µM and 35.3 µM; in the assay with SF-268 CNS, 25.5 µM and 54.7 µM; in the assay on CAKI-1 renal, 18.8 µM and 23.1 µM; with HT29 colon it was 15 µM and 24.2 µM. Also, the GI50 in the assay with IGROV1 ovarian is 11.8 µM and 30.9 µM; in the assay on NCI-H226 lung, 9.29 µM and 19.1 µM; in the assay on RPMI-8226 leukemia, 5.62 µM and 16.9 µM; in the assay with HT29 colon it was 4.28 µM and 11.9 µM.

Consider `O=C(N/N=C(/COc1ccc([N+](=O)[O-])cc1)N=Cc1ccncc1)c1ccncc1`, for which the TGI with NCI-H23 lung, in the assay on NCI/ADR-RES ovarian, with IGROV1 ovarian, in the assay with MDA-MB-231 breast, in the assay with SF-539 CNS and in the assay with NCI-H226 lung was above 100 µM each time. Also, the TGI with 786-0 renal, in the assay on RPMI-8226 leukemia, with SF-268 CNS, in the assay with CAKI-1 renal and in the assay on HT29 colon was above 100 µM each time.

Take `CN(c1ccccc1Cl)S(=O)(=O)c1ccc([N+](=O)[O-])cc1`: the TGI with NCI-H23 lung, in the assay with NCI/ADR-RES ovarian, in the assay on IGROV1 ovarian, in the assay on MDA-MB-231 breast, with SF-539 CNS and with NCI-H226 lung was above 100 µM each time. The TGI in the assay with 786-0 renal, with RPMI-8226 leukemia, with SF-268 CNS, in the assay on CAKI-1 renal and with HT29 colon was above 100 µM in each case.
